Some test systems named below: MDA-MB-231 breast; RXF 393 renal; OVCAR-5 ovarian; NCI-H23 lung; SW-620 colon; A498 renal; NCI-H522 lung; SF-295 CNS; MOLT-4 leukemia; UACC-257 melanoma.
Assay in all cases: DTP human tumour cell line panel, 48 h

Where “and” joins values, the source holds several entries; their conditions need not be identical. Equal entries are not always repeated.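 A five-concentration, 48-hour dose response in 96-well plates underlies each endpoint, interpolated linearly between surrounding concentrations. GI50: concentration for 50% inhibition of growth. The concentration for full growth arrest is given as TGI.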

One may read the GI50 as the concentration at which growth is held to half of that of the control. The term TGI denotes the concentration giving total growth inhibition. Low values mean greater sensitivity of the cells, high ones lower sensitivity of the cells. Take `CC(C)[C@](O)(c1ccc2cc(OC(F)F)c(OC(F)F)cc2c1)c1cn[nH]n1`: the GI50 is 20.5 µM and 12.3 µM in the assay on MDA-MB-231 breast; 15 µM and 14.4 µM in the assay with RXF 393 renal; 21.7 µM and 22.9 µM in the assay with OVCAR-5 ovarian; 16.8 µM and 15.8 µM in the assay with NCI-H23 lung; 21 µM and 18.5 µM in the assay with SW-620 colon; 14.4 µM and 15.4 µM with A498 renal. Moreover, the GI50 with NCI-H522 lung is 16.4 µM and 14.8 µM; in the assay with SF-295 CNS, 15.8 µM and 14 µM; in the assay on MOLT-4 leukemia it was 30.1 µM and 17.1 µM; in the assay with UACC-257 melanoma it was 21.5 µM and 21.8 µM. Further, the TGI with MDA-MB-231 breast is 38.9 µM and 28.6 µM; in the assay with RXF 393 renal, 29.1 µM and 28.3 µM; in the assay with OVCAR-5 ovarian, 65.1 µM and 64.9 µM; with NCI-H23 lung it was 40.1 µM and 35.2 µM; with SW-620 colon it was 44.9 µM and 38.5 µM; in the assay on A498 renal it was 28.2 µM and 29.2 µM. In addition, the TGI with NCI-H522 lung is 36.5 µM and 35.4 µM; in the assay on SF-295 CNS, 33.4 µM and 29 µM; in the assay on MOLT-4 leukemia, 82.7 µM and 62 µM; with UACC-257 melanoma, 47.7 µM and 46.1 µM.
Turning to `COc1cc(/C(Cl)=C/C=C/C(=O)c2c(C)[n+]([O-])c3ccc(Cl)cc3[n+]2[O-])cc(OC)c1OC`, the GI50 in the assay with MDA-MB-231 breast was 6.94 µM; in the assay with RXF 393 renal, 9.15 µM; with OVCAR-5 ovarian it was 13 µM; in the assay on NCI-H23 lung it was 9.36 µM; in the assay with SW-620 colon, 2.24 µM; in the assay on A498 renal, 15.7 µM. Moreover, the GI50 in the assay on NCI-H522 lung is 1.38 µM; in the assay on SF-295 CNS, 2.77 µM; with MOLT-4 leukemia it was 1.35 µM; with UACC-257 melanoma, 16.6 µM. Further, the TGI with MDA-MB-231 breast was 17.8 µM; in the assay on RXF 393 renal, 28 µM; with OVCAR-5 ovarian it was 33.2 µM; in the assay on NCI-H23 lung it was 44.6 µM; in the assay with SW-620 colon it was 9.78 µM; with A498 renal, > 50 µM. Further, the TGI with NCI-H522 lung was 4.23 µM; with SF-295 CNS it was 20.5 µM; in the assay with MOLT-4 leukemia, 3.56 µM; with UACC-257 melanoma, > 50 µM.
For `C=C1C(=O)O[C@H]2[C@H]1CC/C(CNC(=O)/C=C/c1ccc(Br)cc1)=C\CC[C@@]1(C)O[C@@H]21`, the GI50 is 1.41 µM with MDA-MB-231 breast; 0.26 µM in the assay with RXF 393 renal; 1.7 µM in the assay with OVCAR-5 ovarian; 1.41 µM with NCI-H23 lung; 0.444 µM with SW-620 colon; 0.236 µM with A498 renal. The GI50 in the assay on NCI-H522 lung was 0.711 µM; with SF-295 CNS, 2.16 µM; in the assay with MOLT-4 leukemia, 0.678 µM; with UACC-257 melanoma it was 1.43 µM. In addition, the TGI with MDA-MB-231 breast is 2.94 µM; in the assay on RXF 393 renal it was 1.4 µM; with OVCAR-5 ovarian, 3.75 µM; in the assay with NCI-H23 lung, 3.05 µM; with SW-620 colon, 1.77 µM; in the assay on A498 renal, 2.45 µM. In addition, the TGI in the assay on NCI-H522 lung is 2.3 µM; in the assay with SF-295 CNS, 5.81 µM; with MOLT-4 leukemia it was 4.25 µM; with UACC-257 melanoma, 2.97 µM.
Take `CN1CCN(c2ccc(C(=O)Nc3n[nH]c4ccc(Cc5cc(F)cc(F)c5)cc34)c(NC3CCOCC3)c2)CC1`: the GI50 with MDA-MB-231 breast is 1.89 µM and 1.5 µM; with RXF 393 renal, 1.17 µM; in the assay on OVCAR-5 ovarian, 1.85 µM and 1.31 µM; with NCI-H23 lung, 2.63 µM and 1.61 µM; with SW-620 colon, 1.32 µM and 1.33 µM; in the assay with A498 renal, 1.77 µM and 0.846 µM. Also, the GI50 is 1.6 µM and 1.7 µM in the assay on NCI-H522 lung; 3.94 µM and 1.45 µM in the assay with SF-295 CNS; 2.18 µM and 1.82 µM in the assay on MOLT-4 leukemia; 3.72 µM and 1.42 µM in the assay on UACC-257 melanoma. The TGI in the assay on MDA-MB-231 breast is 5.51 µM and 3.06 µM; in the assay with RXF 393 renal, 2.69 µM; in the assay on OVCAR-5 ovarian it was > 10 µM and 2.73 µM; in the assay on NCI-H23 lung it was > 10 µM and 3.54 µM; in the assay with SW-620 colon it was 3.44 µM and 2.76 µM; in the assay on A498 renal it was 6.85 µM and 2.24 µM. Further, the TGI with NCI-H522 lung was 3.36 µM and 3.24 µM; with SF-295 CNS, > 10 µM and 3.11 µM; in the assay on MOLT-4 leukemia, 7.18 µM and 4.42 µM; with UACC-257 melanoma it was > 10 µM and 2.82 µM.
Consider `CCCN(CCC)CCCNCc1cc(I)cc(C)c1O`, for which the GI50 in the assay with MDA-MB-231 breast is 14.5 µM; with RXF 393 renal it was 9.91 µM; in the assay on OVCAR-5 ovarian, 18.5 µM; with NCI-H23 lung, 15.2 µM; with SW-620 colon, 14.3 µM; with A498 renal it was 11.6 µM. Besides, the GI50 in the assay on NCI-H522 lung was 16.9 µM; in the assay on SF-295 CNS, 13.7 µM; with MOLT-4 leukemia it was 10.7 µM; in the assay with UACC-257 melanoma, 11.5 µM. Besides, the TGI with MDA-MB-231 breast was found to be 28.5 µM; with RXF 393 renal, 23.2 µM; in the assay with OVCAR-5 ovarian it was 43.7 µM; in the assay with NCI-H23 lung, 33.5 µM; with SW-620 colon it was 27.4 µM; in the assay on A498 renal, 23.8 µM. Moreover, the TGI in the assay on NCI-H522 lung is 31.1 µM; in the assay on SF-295 CNS, 27 µM; with MOLT-4 leukemia, 23.4 µM; in the assay with UACC-257 melanoma, 27.7 µM.
Turning to `Nc1ccn(C2OC(CO)C(O)C2F)c(=O)n1` (centres undefined), the GI50 in the assay with MDA-MB-231 breast, in the assay with RXF 393 renal, in the assay on OVCAR-5 ovarian, in the assay on NCI-H23 lung, in the assay on SW-620 colon and with A498 renal was > 5000 µM each time. Further, the GI50 is 3990 µM with NCI-H522 lung, > 5000 µM with SF-295 CNS, 2.98 µM in the assay on MOLT-4 leukemia and > 5000 µM in the assay on UACC-257 melanoma. For the same molecule, the TGI in the assay on MDA-MB-231 breast, with RXF 393 renal, in the assay on OVCAR-5 ovarian, in the assay with NCI-H23 lung, in the assay on SW-620 colon and with A498 renal was > 5000 µM in each case. The total growth inhibition concentration (TGI) with NCI-H522 lung, in the assay with SF-295 CNS and in the assay on UACC-257 melanoma was > 5000 µM throughout.
Take `COC(=O)[C@@H](NC(=O)NC(=O)NC(=O)CI)C(C)C`: the GI50 in the assay on MDA-MB-231 breast was 17 µM; in the assay with RXF 393 renal, 6.35 µM; with OVCAR-5 ovarian it was 13.2 µM; in the assay with NCI-H23 lung, 16.1 µM; in the assay on SW-620 colon it was 2.04 µM; in the assay with A498 renal, 16.7 µM. In addition, the GI50 in the assay with NCI-H522 lung is 1.69 µM; in the assay with SF-295 CNS, 17.9 µM; in the assay on MOLT-4 leukemia it was 2.58 µM; with UACC-257 melanoma, 13.6 µM. The TGI amounted to 34.9 µM in the assay with MDA-MB-231 breast; 18.8 µM in the assay with RXF 393 renal; 29.7 µM in the assay with OVCAR-5 ovarian; 33.8 µM in the assay on NCI-H23 lung; 4.19 µM in the assay on SW-620 colon; 30.9 µM in the assay with A498 renal. Moreover, the TGI with NCI-H522 lung is 3.31 µM; with SF-295 CNS it was 40.6 µM; with MOLT-4 leukemia it was 7.05 µM; in the assay with UACC-257 melanoma it was 27.8 µM.

Values taken from PubChem BioAssay (NCI).
